Results from patent US20230293432A1, “POLYMERIC MICELLES COMPRISING GLUCURONIDE-PRODRUGS” (Rheinisch-Westfälische Technische Hochschule (RWTH), priority 2020, published 2023).

System: breast cancer 4T1 cells
Experiment: In vitro calreticulin (CRT) translocation by flow cytometry
Type: cell-based
Details: anti-CRT antibody staining, vs untreated control, FIG. 6A
Method: In a further experiment the ability of doxorubicin and doxorubicin double spacer prodrug and doxorubicin double spacer prodrug in polymeric micelles to induce immunogenicity of tumor cells was assessed in vitro. As one of the most studied phenotypes of immunogenic cell death, calreticulin (CRT) […] to outer surface of cancer cells is able to attract antigen presenting cells to endocytose apoptotic cancer cells. CRT translocation was measured by flow cryometry. To assess CRT translocation induced by the formulations, they were added to breast cancer 4T1 cells which were cultured overnight at 37° C. in RPMI 1640 medium containing 10% FBS and 1% penicillin. After incubation, the cells were washed with PBS and then detached. The CRT translocated to the outer surface of the cells was labeled with anti-CRT antibodies.

COc1cccc2c1C(=O)c1c(O)c3c(c(O)c1C2=O)C[C@@](O)(C(=O)CO)C[C@@H]3O[C@H]1C[C@H](N)[C@H](O)[C@H](C)O1 [DOX, doxorubicin]
signal of CRT in flow cytometry plots: higher signal of CRT compared to untreated control
